Source: the NIST ThermoML archive (doi:10.1016/j.fluid.2015.04.021)

Assay: cn = amount concentration of the nth substance listed, in mol/dm3
Conditions: 101.3 kPa, Liquid; for viscosity: Falling or rolling sphere viscometry; for mass density: Vibrating tube method

NCCCC[C@H](N)C(=O)[O-].[K+] [potassium L-lysinate] + O
Conditions | mass density [kg/m3] | viscosity [mPa·s]
298.15 K, c1 = 0.2001 | 1010.5 | 1.003
298.15 K, c1 = 0.25 | 1017.5 | 1.008
298.15 K, c1 = 0.5 | 1028.2 | 1.29
298.15 K, c1 = 0.75 | 1043.2 | 1.348
298.15 K, c1 = 1.008 | 1056 | 1.575
298.15 K, c1 = 1.529 | 1084.8 | 2.286
298.15 K, c1 = 1.79 | 1111 | 3.236
298.15 K, c1 = 2 | 1121.6 | 3.564
298.15 K, c1 = 2.5 | 1141.9 | 5.406
298.15 K, c1 = 3 | 1151 | 8.407
303.15 K, c1 = 0.2001 | 1009 | 0.8978
303.15 K, c1 = 0.25 | 1016 | 0.9023
303.15 K, c1 = 0.5 | 1027.1 | 1.158
303.15 K, c1 = 0.75 | 1041.4 | 1.2
303.15 K, c1 = 1.008 | 1054.1 | 1.397
303.15 K, c1 = 1.529 | 1082.7 | 2.007
303.15 K, c1 = 1.79 | 1108.6 | 2.805
303.15 K, c1 = 2 | 1119.1 | 3.054
303.15 K, c1 = 2.5 | 1139.1 | 4.597
303.15 K, c1 = 3 | 1148.3 | 7.027
308.15 K, c1 = 0.2001 | 1007.3 | 0.8095
308.15 K, c1 = 0.25 | 1014.2 | 0.8125
308.15 K, c1 = 0.5 | 1025.2 | 1.045
308.15 K, c1 = 0.75 | 1039.5 | 1.075
308.15 K, c1 = 1.008 | 1052 | 1.247
308.15 K, c1 = 1.529 | 1080.4 | 1.774
308.15 K, c1 = 1.79 | 1106 | 2.454
308.15 K, c1 = 2 | 1116.5 | 2.676
308.15 K, c1 = 2.5 | 1136.4 | 3.95
308.15 K, c1 = 3 | 1145.5 | 5.946
313.15 K, c1 = 0.2001 | 1005.4 | 0.7344
313.15 K, c1 = 0.25 | 1012.3 | 0.7377
313.15 K, c1 = 0.5 | 1023.2 | 0.9512
313.15 K, c1 = 0.75 | 1037.3 | 0.9697
313.15 K, c1 = 1.008 | 1049.8 | 1.121
313.15 K, c1 = 1.529 | 1077.9 | 1.581
313.15 K, c1 = 1.79 | 1103.4 | 2.173
313.15 K, c1 = 2 | 1113.8 | 2.358
313.15 K, c1 = 2.5 | 1133.5 | 3.433
313.15 K, c1 = 3 | 1142.6 | 5.094
318.15 K, c1 = 0.2001 | 1003.3 | 0.6711
318.15 K, c1 = 0.25 | 1010.2 | 0.6737
318.15 K, c1 = 0.5 | 1021 | 0.866
318.15 K, c1 = 0.75 | 1035.1 | 0.8813
318.15 K, c1 = 1.008 | 1047.5 | 1.014
318.15 K, c1 = 1.529 | 1075.4 | 1.418
318.15 K, c1 = 1.79 | 1100.8 | 1.934
318.15 K, c1 = 2 | 1111 | 2.116
318.15 K, c1 = 2.5 | 1130.6 | 3.008
318.15 K, c1 = 3 | 1139.7 | 4.407
323.15 K, c1 = 0.2001 | 1001.1 | 0.6168
323.15 K, c1 = 0.25 | 1007.9 | 0.6185
323.15 K, c1 = 0.5 | 1018.6 | 0.796
323.15 K, c1 = 0.75 | 1032.7 | 0.804
323.15 K, c1 = 1.008 | 1045 | 0.9223
323.15 K, c1 = 1.529 | 1072.8 | 1.28
323.15 K, c1 = 1.79 | 1098.1 | 1.735
323.15 K, c1 = 2 | 1108.1 | 1.916
323.15 K, c1 = 2.5 | 1127.6 | 2.659
323.15 K, c1 = 3 | 1136.7 | 3.852
328.15 K, c1 = 0.2001 | 998.6 | 0.5697
328.15 K, c1 = 0.25 | 1005.4 | 0.5705
328.15 K, c1 = 0.5 | 1016.2 | 0.7351
328.15 K, c1 = 0.75 | 1030.1 | 0.7388
328.15 K, c1 = 1.008 | 1042.4 | 0.8431
328.15 K, c1 = 1.529 | 1070.1 | 1.162
328.15 K, c1 = 1.79 | 1095.2 | 1.566
328.15 K, c1 = 2 | 1105.2 | 1.757
328.15 K, c1 = 2.5 | 1124.6 | 2.368
328.15 K, c1 = 3 | 1133.7 | 3.394
333.15 K, c1 = 0.2001 | 995.6 | 0.5292
333.15 K, c1 = 0.25 | 1002.8 | 0.5294
333.15 K, c1 = 0.5 | 1013.7 | 0.6833
333.15 K, c1 = 0.75 | 1027.5 | 0.6798
333.15 K, c1 = 1.008 | 1039.7 | 0.7748
333.15 K, c1 = 1.529 | 1067.2 | 1.061
333.15 K, c1 = 1.79 | 1092.3 | 1.421
333.15 K, c1 = 2 | 1102.2 | 1.621
333.15 K, c1 = 2.5 | 1121.5 | 2.136
333.15 K, c1 = 3 | 1130.6 | 3.012
338.15 K, c1 = 0.2001 | 993.4 | 0.4937
338.15 K, c1 = 0.25 | 1002.8 | 0.4939
338.15 K, c1 = 0.5 | 1011 | 0.6409
338.15 K, c1 = 0.75 | 1024.7 | 0.629
338.15 K, c1 = 1.008 | 1036.9 | 0.7155
338.15 K, c1 = 1.529 | 1064.3 | 0.9729
338.15 K, c1 = 1.79 | 1089.3 | 1.296
338.15 K, c1 = 2 | 1099.1 | 1.501
338.15 K, c1 = 2.5 | 1118.3 | 1.927
338.15 K, c1 = 3 | 1127.5 | 2.693
343.15 K, c1 = 0.2001 | 990.6 | 0.4633
343.15 K, c1 = 0.25 | 997.3 | 0.463
343.15 K, c1 = 0.5 | 1008.1 | 0.6042
343.15 K, c1 = 0.75 | 1021.8 | 0.5855
343.15 K, c1 = 1.008 | 1033.9 | 0.6637
343.15 K, c1 = 1.529 | 1061.3 | 0.8961
343.15 K, c1 = 1.79 | 1086.3 | 1.188
343.15 K, c1 = 2 | 1096 | 1.435
343.15 K, c1 = 2.5 | 1115 | 1.748
343.15 K, c1 = 3 | 1124.3 | 2.423
348.15 K, c1 = 0.2001 | 987.7 | 0.4359
348.15 K, c1 = 0.25 | 994.3 | 0.4358
348.15 K, c1 = 0.5 | 1005.2 | 0.5715
348.15 K, c1 = 0.75 | 1018.7 | 0.5472
348.15 K, c1 = 1.008 | 1030.9 | 0.6181
348.15 K, c1 = 1.529 | 1058.2 | 0.8306
348.15 K, c1 = 1.79 | 1083.2 | 1.095
348.15 K, c1 = 2 | 1092.7 | 1.346
348.15 K, c1 = 2.5 | 1111.8 | 1.594
348.15 K, c1 = 3 | 1121.1 | 2.208

O=C([O-])[C@@H]1CCCN1.[K+] [potassium L-prolinate] + O
Conditions | mass density [kg/m3] | viscosity [mPa·s]
298.15 K, c1 = 0.5001 | 1026.6 | 1.105
298.15 K, c1 = 1 | 1054.7 | 1.38
298.15 K, c1 = 1.5 | 1088 | 1.861
298.15 K, c1 = 2 | 1111.4 | 2.293
298.15 K, c1 = 2.5 | 1145.8 | 3.181
298.15 K, c1 = 3 | 1166.9 | 4.054
303.15 K, c1 = 0.5001 | 1025.2 | 0.9857
303.15 K, c1 = 1 | 1053 | 1.232
303.15 K, c1 = 1.5 | 1086.4 | 1.642
303.15 K, c1 = 2 | 1109.2 | 2.028
303.15 K, c1 = 2.5 | 1143.2 | 2.755
303.15 K, c1 = 3 | 1164.1 | 3.491
308.15 K, c1 = 0.5001 | 1023.5 | 0.8913
308.15 K, c1 = 1 | 1051 | 1.103
308.15 K, c1 = 1.5 | 1084.5 | 1.465
308.15 K, c1 = 2 | 1107 | 1.794
308.15 K, c1 = 2.5 | 1140.6 | 2.409
308.15 K, c1 = 3 | 1161.3 | 3.038
313.15 K, c1 = 0.5001 | 1021.6 | 0.8086
313.15 K, c1 = 1 | 1049 | 0.9949
313.15 K, c1 = 1.5 | 1082.2 | 1.31
313.15 K, c1 = 2 | 1104.7 | 1.601
313.15 K, c1 = 2.5 | 1137.9 | 2.136
313.15 K, c1 = 3 | 1158.4 | 2.662
318.15 K, c1 = 0.5001 | 1019.6 | 0.7351
318.15 K, c1 = 1 | 1046.8 | 0.9035
318.15 K, c1 = 1.5 | 1081.2 | 1.2
318.15 K, c1 = 2 | 1102.5 | 1.439
318.15 K, c1 = 2.5 | 1135.1 | 1.903
318.15 K, c1 = 3 | 1155.5 | 2.354
323.15 K, c1 = 0.5001 | 1017.6 | 0.6741
323.15 K, c1 = 1 | 1044.5 | 0.8251
323.15 K, c1 = 1.5 | 1078.8 | 1.085
323.15 K, c1 = 2 | 1100.4 | 1.296
323.15 K, c1 = 2.5 | 1132.2 | 1.707
323.15 K, c1 = 3 | 1152.5 | 2.102
328.15 K, c1 = 0.5001 | 1015.2 | 0.6219
328.15 K, c1 = 1 | 1042.2 | 0.7569
328.15 K, c1 = 1.5 | 1076.6 | 0.9922
328.15 K, c1 = 2 | 1098.5 | 1.196
328.15 K, c1 = 2.5 | 1129.2 | 1.541
328.15 K, c1 = 3 | 1149.4 | 1.887
333.15 K, c1 = 0.5001 | 1012.8 | 0.5764
333.15 K, c1 = 1 | 1039.9 | 0.7002
333.15 K, c1 = 1.5 | 1074.7 | 0.9175
333.15 K, c1 = 2 | 1095.8 | 1.093
333.15 K, c1 = 2.5 | 1126.2 | 1.4
333.15 K, c1 = 3 | 1146.3 | 1.704
338.15 K, c1 = 0.5001 | 1010.4 | 0.5373
338.15 K, c1 = 1 | 1037.4 | 0.6493
338.15 K, c1 = 1.5 | 1073.7 | 0.8552
338.15 K, c1 = 2 | 1093.6 | 1.009
338.15 K, c1 = 2.5 | 1123 | 1.278
338.15 K, c1 = 3 | 1143.1 | 1.549
343.15 K, c1 = 0.5001 | 1008 | 0.5039
343.15 K, c1 = 1 | 1035.5 | 0.608
343.15 K, c1 = 1.5 | 1071.9 | 0.7966
343.15 K, c1 = 2 | 1094.3 | 0.9587
343.15 K, c1 = 2.5 | 1119.9 | 1.173
343.15 K, c1 = 3 | 1139.8 | 1.414
348.15 K, c1 = 0.5001 | 1005.6 | 0.4733
348.15 K, c1 = 1 | 1035.7 | 0.5792
348.15 K, c1 = 1.5 | 1070.5 | 0.7486
348.15 K, c1 = 2 | 1092.4 | 0.8972
348.15 K, c1 = 2.5 | 1116.6 | 1.082
348.15 K, c1 = 3 | 1136.5 | 1.299
